Assay in all cases: biochemical
Holding throughout (design): Eurofins KinaseProfiler full panel at Km ATP, residual kinase activity (%) relative to DMSO

One experiment concerns the target T1, MAP4K3(h) (Homo sapiens, UniProt Q8IVH8).
T1 sequence (Q8IVH8 1-894): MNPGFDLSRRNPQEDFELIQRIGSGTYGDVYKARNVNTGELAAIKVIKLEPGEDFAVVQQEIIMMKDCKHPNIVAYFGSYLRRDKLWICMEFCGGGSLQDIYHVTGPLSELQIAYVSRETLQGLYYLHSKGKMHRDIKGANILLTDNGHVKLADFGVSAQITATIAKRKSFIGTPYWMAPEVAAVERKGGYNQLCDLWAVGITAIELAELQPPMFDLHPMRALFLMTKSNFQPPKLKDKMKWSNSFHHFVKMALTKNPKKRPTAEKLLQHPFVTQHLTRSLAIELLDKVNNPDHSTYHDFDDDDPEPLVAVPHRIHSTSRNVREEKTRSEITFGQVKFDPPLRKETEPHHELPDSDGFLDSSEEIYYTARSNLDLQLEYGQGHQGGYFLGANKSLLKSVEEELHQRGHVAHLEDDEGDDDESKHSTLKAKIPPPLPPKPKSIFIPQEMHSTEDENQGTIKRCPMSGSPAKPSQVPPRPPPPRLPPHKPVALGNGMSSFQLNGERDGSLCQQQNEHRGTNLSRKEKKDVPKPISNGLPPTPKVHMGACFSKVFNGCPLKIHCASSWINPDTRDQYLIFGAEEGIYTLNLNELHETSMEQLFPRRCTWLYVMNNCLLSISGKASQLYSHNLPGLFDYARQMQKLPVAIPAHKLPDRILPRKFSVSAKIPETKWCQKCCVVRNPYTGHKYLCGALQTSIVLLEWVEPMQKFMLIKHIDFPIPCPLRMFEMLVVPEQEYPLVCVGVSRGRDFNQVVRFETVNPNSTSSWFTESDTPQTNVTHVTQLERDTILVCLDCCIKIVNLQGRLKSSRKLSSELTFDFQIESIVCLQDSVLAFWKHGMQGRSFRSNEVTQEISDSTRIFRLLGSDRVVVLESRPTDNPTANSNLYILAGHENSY
A digest of the protocol:
(§1)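 Radiometric kinase activity assays were run with ATP at Km and compounds at 10 µM, and remaining activity (%) was reported. A separate competitive binding screen measured DNA-tagged kinase displaced from immobilized active-site ligands by qPCR, giving percent kinase still bound at 10 µM compound in DMSO.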

The next experiment deals with Lck(h) activated (Homo sapiens, UniProt P06239). In outline:
as §1

A further experiment deals with T2, EphA3(h) (Homo sapiens, UniProt P29320).
T2 sequence (P29320 1-983): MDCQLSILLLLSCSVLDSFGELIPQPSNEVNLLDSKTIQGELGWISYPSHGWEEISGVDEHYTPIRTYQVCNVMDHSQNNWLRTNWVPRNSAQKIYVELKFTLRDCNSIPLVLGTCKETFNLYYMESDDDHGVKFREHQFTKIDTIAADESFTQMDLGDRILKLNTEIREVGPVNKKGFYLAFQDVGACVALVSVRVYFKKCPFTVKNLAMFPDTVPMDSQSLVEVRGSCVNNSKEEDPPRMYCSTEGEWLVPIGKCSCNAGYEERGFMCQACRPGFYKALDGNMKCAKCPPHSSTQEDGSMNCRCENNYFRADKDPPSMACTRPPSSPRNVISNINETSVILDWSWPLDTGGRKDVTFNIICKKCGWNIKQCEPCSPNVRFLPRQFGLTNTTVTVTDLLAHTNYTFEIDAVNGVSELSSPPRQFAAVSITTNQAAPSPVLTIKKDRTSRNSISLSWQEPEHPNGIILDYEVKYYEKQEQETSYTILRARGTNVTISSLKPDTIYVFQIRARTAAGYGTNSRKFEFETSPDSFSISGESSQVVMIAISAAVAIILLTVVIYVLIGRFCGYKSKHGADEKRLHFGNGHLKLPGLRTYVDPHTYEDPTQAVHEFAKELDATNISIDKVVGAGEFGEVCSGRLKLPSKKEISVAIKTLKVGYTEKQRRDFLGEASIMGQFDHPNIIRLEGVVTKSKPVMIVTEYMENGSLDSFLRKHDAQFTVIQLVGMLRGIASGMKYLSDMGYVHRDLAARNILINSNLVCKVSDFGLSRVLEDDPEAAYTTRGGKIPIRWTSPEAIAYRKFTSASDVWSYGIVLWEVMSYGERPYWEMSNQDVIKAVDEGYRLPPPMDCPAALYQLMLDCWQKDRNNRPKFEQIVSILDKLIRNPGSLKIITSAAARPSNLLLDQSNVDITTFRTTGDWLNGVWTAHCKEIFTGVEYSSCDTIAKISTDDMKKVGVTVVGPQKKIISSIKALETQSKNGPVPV
In outline: as §1

The target of a further experiment is T3, PDGFRα(h) (Homo sapiens, UniProt P16234).
T3 construct: gene PDGFRA
T3 sequence (P16234 whole entry): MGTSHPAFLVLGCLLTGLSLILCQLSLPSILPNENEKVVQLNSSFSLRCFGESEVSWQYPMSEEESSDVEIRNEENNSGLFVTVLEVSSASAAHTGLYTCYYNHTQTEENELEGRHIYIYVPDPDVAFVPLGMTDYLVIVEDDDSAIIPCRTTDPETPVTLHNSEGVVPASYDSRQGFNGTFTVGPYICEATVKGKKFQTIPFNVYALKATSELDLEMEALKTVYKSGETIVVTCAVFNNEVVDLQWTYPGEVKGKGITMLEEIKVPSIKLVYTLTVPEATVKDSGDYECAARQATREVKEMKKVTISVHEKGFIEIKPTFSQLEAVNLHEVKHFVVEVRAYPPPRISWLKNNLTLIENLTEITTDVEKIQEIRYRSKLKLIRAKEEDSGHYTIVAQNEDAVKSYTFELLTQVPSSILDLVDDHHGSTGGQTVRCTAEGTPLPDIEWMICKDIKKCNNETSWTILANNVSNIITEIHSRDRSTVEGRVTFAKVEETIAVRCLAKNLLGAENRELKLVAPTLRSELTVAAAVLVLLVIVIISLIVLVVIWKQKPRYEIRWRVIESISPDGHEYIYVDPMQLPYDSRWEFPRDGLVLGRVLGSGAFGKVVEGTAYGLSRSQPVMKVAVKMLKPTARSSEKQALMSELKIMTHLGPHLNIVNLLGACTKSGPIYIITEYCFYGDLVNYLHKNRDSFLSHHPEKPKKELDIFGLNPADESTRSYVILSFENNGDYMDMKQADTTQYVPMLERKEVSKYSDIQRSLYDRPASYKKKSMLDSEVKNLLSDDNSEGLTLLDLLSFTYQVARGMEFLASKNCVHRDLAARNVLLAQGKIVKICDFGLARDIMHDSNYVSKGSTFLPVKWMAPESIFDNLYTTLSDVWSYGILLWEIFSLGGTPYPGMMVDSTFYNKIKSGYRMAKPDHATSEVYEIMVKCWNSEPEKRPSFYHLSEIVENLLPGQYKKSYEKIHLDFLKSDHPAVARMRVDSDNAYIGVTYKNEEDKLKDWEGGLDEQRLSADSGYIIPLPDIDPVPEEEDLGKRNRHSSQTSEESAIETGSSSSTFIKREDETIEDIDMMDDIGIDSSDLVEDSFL
In outline: as §1

Where [1] appears, read: read-out: Residual activity (%) Spautin-1 5aa.
Where [2] appears, read: read-out: Residual activity (%) 5as.
The mark [3] stands for this setting: read-out: Residual activity (%) 5at.
Setting [4] is: read-out: Residual activity (%) 5ay.

Each structure is given as a SMILES string. Like-named read-outs stand apart in the source and are kept apart here.

Sequence of Lck(h) activated (P06239 whole entry): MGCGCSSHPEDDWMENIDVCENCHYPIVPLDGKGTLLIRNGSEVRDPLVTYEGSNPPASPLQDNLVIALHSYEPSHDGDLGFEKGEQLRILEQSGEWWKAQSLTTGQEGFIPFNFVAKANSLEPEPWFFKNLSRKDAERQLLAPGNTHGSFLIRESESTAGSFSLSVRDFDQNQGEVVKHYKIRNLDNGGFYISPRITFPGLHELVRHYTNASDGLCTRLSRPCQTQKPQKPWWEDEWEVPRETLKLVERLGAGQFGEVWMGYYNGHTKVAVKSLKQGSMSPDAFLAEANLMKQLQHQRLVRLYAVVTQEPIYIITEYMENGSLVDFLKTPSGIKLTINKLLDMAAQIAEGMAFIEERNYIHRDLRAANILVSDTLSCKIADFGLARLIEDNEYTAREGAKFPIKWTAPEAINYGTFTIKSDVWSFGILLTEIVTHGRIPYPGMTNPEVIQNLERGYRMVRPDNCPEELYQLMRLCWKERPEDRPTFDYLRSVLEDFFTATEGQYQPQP

Turning to `Fc1ccc(CNc2ncnc3ccc(F)cc23)cc1` [5aa, 6-Fluoro-N-(4-fluorobenzyl)-4-Quinazolinamine], the remaining activity at 10 µM was 99% on MAP4K3(h) (setting [1]), 93% on Lck(h) activated (setting [1]), 116% at EphA3(h) (setting [1]) and 111% on PDGFRα(h) (setting [1]).

Consider `Fc1ccc(CCNc2ncnc3ccc(F)cc23)cc1` [5as, 6-Fluoro-N-[2-(4-Fluorophenyl)Ethyl]-4-Quinazolinamine], for which the remaining activity at 10 µM worked out at 87% at MAP4K3(h) (setting [2]), 100% on Lck(h) activated (setting [2]), 108% at EphA3(h) (setting [2]) and 90% on PDGFRα(h) (setting [2]).

On to `Fc1ccc2ncnc(NCCc3ccc(Cl)cc3)c2c1` [5at, N-[2-(4-Chlorophenyl)Ethyl]-6-Fluoro-4-Quinazolinamine], for which the remaining activity at 10 µM stood at 93% at MAP4K3(h) (setting [3]), 91% at Lck(h) activated (setting [3]), 94% at EphA3(h) (setting [3]) and 95% at PDGFRα(h) (setting [3]).

Consider `COc1ccc2ncnc(Nc3cccc(F)c3)c2c1` [5ay, N-(3-Fluorophenyl)-6-Methoxy-4-Quinazolinamine], for which the remaining activity at 10 µM on MAP4K3(h) (setting [4]) came to 87%; on Lck(h) activated (setting [4]), 73%; at EphA3(h) (setting [4]), 110%; at PDGFRα(h) (setting [4]) it was 101%.

These data come from article PMC7827406, “Structure–Activity Relationship (SAR) Study of Spautin-1 to Entail the Discovery of Novel NEK4 Inhibitors” (International Journal of Molecular Sciences, 2021).
